Tested on: ONGHEPA1 cells
Test: Global gene expression analysis (RNA-Seq) and target gene analysis
Type: cell-based, mouse
Conditions: 24 hr
Protocol: For a mechanism for the therapeutic effect on fibrosis, the global gene expression of DMSO-treated ONGHEPA1 cells (a control group), ONGHEPA1 cells in which fibrosis was induced by TGF-β, and ONGHEPA1 cells treated with TGF-β and eupatilin was measured.
The cells were treated with DMSO, TGF-β or eupatilin for 24 hr, and total RNA was isolated to manufacture a library, after which about 10,000 expressed mRNA species in a total transcriptome of 30 Gb were analyzed using an Illumina High-seq sequencer.

COc1ccc(-c2cc(=O)c3c(O)c(OC)c(O)cc3o2)cc1OC [eupatilin, 2-(3,4-dimethoxyphenyl)-5,7-dihydroxy-6-methoxy-chromone]
expression of Fstl1 (TGF-β + eupatilin): inhibited to a level of almost zero
Log2fc A disintegrin-like and metallopeptidase (reprolysin type) with thrombospondin type 1 motif 2 (Adamts2) (TGF-β vs TGF-β+eupatilin): 2.08
Log2fc A disintegrin-like and metallopeptidase with thrombospondin type 1 motif 12 (Adamts12) (TGF-β vs TGF-β+eupatilin): 2.09
Log2fc AXL receptor tyrosine kinase (Axl) (TGF-β vs TGF-β+eupatilin): −infinite
Log2fc Actin alpha 4 (Actn4) (TGF-β vs TGF-β+eupatilin): infinite
Log2fc Actin, gamma2 (Actg2) (TGF-β vs TGF-β+eupatilin): −5.83
Log2fc ArfGAP with SH3 domain, ankyrin repeat and PH domain 1 (Asap1) (TGF-β vs TGF-β+eupatilin): −infinite
Log2fc Aurora kinase A (Aurka) (TGF-β vs TGF-β+eupatilin): −15.3
Log2fc BTAF1 RNA polymerase II, B-TFIID transcription factor-associated (Btaf1) (TGF-β vs TGF-β+eupatilin): −infinite
Log2fc C-terminal-binding protein 2 (Ctbp2) (TGF-β vs TGF-β+eupatilin): infinite
Log2fc Caldesmon 1 (Cald1) (TGF-β vs TGF-β+eupatilin): infinite
Log2fc Calreticulin (Calr) (TGF-β vs TGF-β+eupatilin): −1.74
Log2fc Calumenin (Calu) (TGF-β vs TGF-β+eupatilin): infinite
Log2fc Caveolin 1, Caveolae protein (Cav1) (TGF-β vs TGF-β+eupatilin): 1.76
Log2fc Cell cycle associated protein 1 (Caprin1) (TGF-β vs TGF-β+eupatilin): −infinite
Log2fc Cell migration inducing protein, hyaluronan binding (Cemip) (TGF-β vs TGF-β+eupatilin): −2.75
Log2fc Coatomer protein complex, subunit gamma 1 (Copg1) (TGF-β vs TGF-β+eupatilin): infinite
Log2fc Collagen type 1 alpha 1 (Col1a1) (TGF-β vs TGF-β+eupatilin): −1.64
Log2fc Collagen type VII alpha1 (Col7a1) (TGF-β vs TGF-β+eupatilin): −15.2
Log2fc Collagen type XV, alpha 1 (Col5a1) (TGF-β vs TGF-β+eupatilin): 2.26
Log2fc Collagen, type III, alpha 1 (Col3a1) (TGF-β vs TGF-β+eupatilin): infinite
Log2fc Collagen, type XI, alpha 1 (Col11a1) (TGF-β vs TGF-β+eupatilin): −3.11
Log2fc Collagen, type XII, alpha 1 (Col12a1) (TGF-β vs TGF-β+eupatilin): 2.02
Log2fc Colony stimulating factor 1 (macrophage) (Csf1) (TGF-β vs TGF-β+eupatilin): 2.15
Log2fc Crystallin, zeta (quinone reductase)-like 1 (Cryzl1) (TGF-β vs TGF-β+eupatilin): infinite
Log2fc Cyclin D2 (Ccnd2) (TGF-β vs TGF-β+eupatilin): 2.29
Log2fc Dihydropyrimidinase-like 3 (Dpysl3) (TGF-β vs TGF-β+eupatilin): infinite
Log2fc Doublecortin-like kinase 1 (Dclk1) (TGF-β vs TGF-β+eupatilin): 1.54
Log2fc Dynein cytoplasmic 1 heavy chain 1 (Dync1h1) (TGF-β vs TGF-β+eupatilin): −infinite
Log2fc Dysferlin (Dysf) (TGF-β vs TGF-β+eupatilin): 2.06
Log2fc EH-domain containing 2 (Ehd2) (TGF-β vs TGF-β+eupatilin): infinite
Log2fc Elastin (Eln) (TGF-β vs TGF-β+eupatilin): 3.28
Log2fc Endoglin (Eng) (TGF-β vs TGF-β+eupatilin): −infinite
Log2fc Endoplasmic reticulum-golgi intermediate compartment 1 (ERGIC1) (TGF-β vs TGF-β+eupatilin): −1.26
Log2fc Ephrin B2 (Efnb2) (TGF-β vs TGF-β+eupatilin): 1.92
Log2fc Epidermal growth factor-containing fibulin-like extracellular matrix protein 2 (Efemp2) (TGF-β vs TGF-β+eupatilin): 1.66
Log2fc Exocyst complex component 4 (Exoc4) (TGF-β vs TGF-β+eupatilin): 2.9
Log2fc Family with sequence similarity 175, member B (Fam175b) (TGF-β vs TGF-β+eupatilin): −infinite
Log2fc Fibronectin 1 (Fn1) (TGF-β vs TGF-β+eupatilin): infinite
Log2fc Fibronectin type III domain containing 1 (Fndc1) (TGF-β vs TGF-β+eupatilin): 1.75
Log2fc Follistatin-like 1 (Fstl1) (TGF-β vs TGF-β+eupatilin): infinite
Log2fc Fras 1 related extracellular matrix protein 1 (Frem1) (TGF-β vs TGF-β+eupatilin): 2.36
Log2fc Heat shock protein 90, alpha (cytosolic), class A member 1(Hsp90aa1) (TGF-β vs TGF-β+eupatilin): infinite
Log2fc Heparan sulfate 6-O-sulfotransferase 2 (Hs6st2) (TGF-β vs TGF-β+eupatilin): 3.26
Log2fc Importin-4 (Ipo4) (TGF-β vs TGF-β+eupatilin): −infinite
Log2fc Inhibition beta-A (Inhba) (TGF-β vs TGF-β+eupatilin): 2.19
Log2fc Inositol hexakisphosphate kinase 1 (Ip6k1) (TGF-β vs TGF-β+eupatilin): −infinite
Log2fc Integral beta 5 (Itgb5) (TGF-β vs TGF-β+eupatilin): −infinite
Log2fc Interleukin 18 receptor accessory protein (Il18rap) (TGF-β vs TGF-β+eupatilin): 1.69
Log2fc Intersectin 1 (SH3 domain protein 1A) (Itsn1) (TGF-β vs TGF-β+eupatilin): infinite
Log2fc Laminin, alpha 4 (Lama4) (TGF-β vs TGF-β+eupatilin): −1.29
Log2fc Latent transforming growth factor beta binding protein 1 (Ltbp1) (TGF-β vs TGF-β+eupatilin): 3.32
Log2fc Latent transforming growth factor beta binding protein 2 (Ltbp2) (TGF-β vs TGF-β+eupatilin): −infinite

Source: patent publication US10744114B2, “Use of eupatilin as pharmaceutical composition for prevention and treatment of fibrosis using EMT inhibitory activity” (OSTEONEUROGEN INC., priority 2016, dated 2020)
